Results reported in ChEMBL document CHEMBL3507680, “University of Dundee, Gates Library screen for HepG2 cell viability”.

assay: Human HepG2 cell viability assay in 384 well format; format: toxicity, cell-based; parameters: dose 125 nL, time 70.5 hour; concentration not given beside the values; details: HepG2 cells, read-out: Inhibition

Compound	cytotoxicity at 70.5 h [%]
CC(C)=CCN1CCN(Cc2nccn2C)[C@H]2CS(=O)(=O)C[C@H]21	-7.09
CN(C)c1nc(N)nc(CN2CCCC2c2ccsc2)n1 (stereo unspecified)	-7.29
CN(CCN1CCCC1)c1nccc(N2CCN[C@H]3CS(=O)(=O)C[C@H]32)n1	22.4
CN(C)[C@H]1CCCCN(Cc2ccccc2Cn2cccn2)C1	2.32
N#CCCN(CCC#N)C(=O)c1ccc(COc2ccccc2C#N)o1	6.22
CCOC(=O)N1CCN(C(=O)c2cc(-c3ccccc3F)on2)CC1	-0.971
Cc1ccc(CN2C(=O)CCC2C(=O)Nc2cnn(C)c2)o1 (stereo unspecified)	-4.24
Cc1nc(CN2CCCN(C(=O)c3sccc3C#N)CC2)cs1	0.736
CCC(CO)(CO)NC(=O)C1CCC(=O)N(CCc2ccccc2)C1 (stereo unspecified)	-10.4
O=C(O)c1ccccc1C1CCN(C2Cc3ccccc3C2)C1 (stereo unspecified)	-1.24
CNC(=O)CN(C)Cc1ccc(F)cc1Cl	-6.72
Cn1cnc2c1CCN(CCOc1ccc(C#N)cc1)C2	1.67
CCN1CCC(NC(=O)CN2CCCC2Cn2cncn2)CC1 (stereo unspecified)	-2.95
CN(Cc1noc2c1CCCC2)C(=O)Nc1ccc2oc(=O)n(C)c2c1	20.6
Cc1ccc(CN2C[C@H](NC(=O)c3nccn3C)[C@H]3OCCC[C@H]32)o1	18.3
O=C(O)c1ccccc1-c1cnc(CNC(=O)C2CCOCC2)nc1	14
Cc1nc(CN2CCc3ncnc(-c4ccsc4)c3CC2)cs1	-9.47
CC(NS(C)(=O)=O)C(=O)Nc1ccc2oc(C3CC3)nc2c1 (stereo unspecified)	-3.24
CN(C)c1ncnc2c1CCN(c1cc(C(F)(F)F)ncn1)CC2	-1.26
O=C(C1CCCCC1)N1CCC2(CC1)CNCc1ccccc12	0.691
CC(NC(=O)C(C)(C)C)c1cc(O)nc(-c2cccnc2)n1 (stereo unspecified)	-5.99
O=S(=O)(c1cccs1)N1CCCC2(COCCN(c3cccnc3)C2)C1 (stereo unspecified)	-1.65
Cc1ccccc1N1CC(C)N(C(=O)CCn2cccn2)CC1=O (stereo unspecified)	15.3

Compound	cytotoxicity at 70.5 h [%]
CS(=O)(=O)CCSCc1ccc(Br)c(F)c1	-1.55
CN(C)C(=O)C1CCN(Cc2csc(C(C)(C)C)n2)CC1	18
C1CC(CN2CCO[C@H]3[C@H](OCC4CC4)CC[C@@H]32)CCO1	-2.31
Cc1ccc(C(=O)NCCN2CCOCC2)cc1N(C)S(C)(=O)=O	1.25
CCC1=N[C@@]2(CC[C@@H]3CN(S(=O)(=O)CC)C[C@@H]32)C(=O)N1CCOC	-2.77
CC(=O)N1N=C(COc2ccc(C)cc2)OC1c1ccc(N(C)C)cc1 (stereo unspecified)	-6.08
Cc1nc(CCCC(=O)Nc2cccc(N3CCNC3=O)c2)cs1	0.608
CN(C)c1ccc(C(=O)N2CCN(c3cnccn3)CC2)cn1	-17.1
Cc1cc(C)c(CNc2nc3ccccc3cc2CO)c(=O)[nH]1	6.72
CCn1ccnc1S(=O)(=O)Cc1c(C)cc(C)c(C(C)=O)c1C	-6.82
COc1ccc(OCCCN2CCOC(Cn3cccn3)C2)cc1 (stereo unspecified)	15.4
c1cnc(N2CCOCC3(CN(Cc4nccs4)CCO3)C2)nc1 (stereo unspecified)	-2.26
Fc1ccc2c(c1)C1(CCNCC1)CC2OCC1CC1 (stereo unspecified)	-7.69
CNS(=O)(=O)c1cccc(CNc2ccc(C(F)(F)F)nn2)c1	-3.47
Cc1noc(CCNC(=O)C2CSCN2C(=O)C2CCCC2)n1 (stereo unspecified)	-5.54
Cc1cnc(N(C)Cc2cnc3ccccc3n2)nc1N(C)C	-14.7
CC(=O)N1CCOC(c2c(C(=O)NCCN(C)C)sc3ccccc23)C1 (stereo unspecified)	-7.61
CCc1n[nH]c(C2CN(C(=O)Cn3ccccc3=O)CCO2)n1 (stereo unspecified)	21.1
CC(C1CCN(C(=O)c2coc(CN3CCOCC3)c2)CC1)N(C)C (stereo unspecified)	-1.57
O=C(O)C1CCCN1c1nc(-c2ccc(Cl)cc2)cc(C(F)(F)F)n1 (stereo unspecified)	-3.11
CC(C)c1nccn1CC(=O)Nc1ccnn1C(C)C(C)C (stereo unspecified)	-16
CCOc1nnc(CN(Cc2ccccc2)CC(O)c2ccco2)s1 (stereo unspecified)	-10.6
COc1cc(-c2nc(C3CC3)nn2-c2ccnc(C)c2)nc(OC)n1	-14.3

Compound	cytotoxicity at 70.5 h [%]
CC(C)N1CCC2(CCN(C(=O)c3cccnc3)CC2)C1	-16.3
O=C(c1cnccn1)N1CCC(CN2CCOCC2)CC1	-7.46
Cc1ccc(NC2CCN(C(=O)c3cccc4ncccc34)CC2)nn1	1.63
O=C(NCCN1C(=O)CCC1=O)c1nc2ccccc2c(=O)[nH]1	-12.2
CC(C)n1cnnc1CN(C)Cc1cnc(-c2ccccn2)nc1	-5.94
Cc1nc(C)c(C(C)NC(=O)NCCNc2cccc(F)c2C#N)s1 (stereo unspecified)	-8.61
Cn1cnc(S(=O)(=O)N2C[C@@H]3CC[C@H](C2)N(Cc2ccccn2)C3)c1	-7.24
CCC(NC(=O)c1cc(OC)c2c(c1)OCCO2)c1cccs1 (stereo unspecified)	-8.09
COCc1ncn2c1CN(C(=O)Nc1ccccc1)CC2	-4.33
Cc1noc([C@@H]2C[C@H]3OCC[C@H]3N(S(=O)(=O)N(C)C)C2)n1	-0.423
Cc1nn2cccnc2c1C(=O)NCc1ccnc(OCC2CC2)c1	-12.1
Cc1cc(C)n(C2CN(CC(O)c3ccc(C(F)(F)F)cc3)C2)n1 (stereo unspecified)	-4.01
CNc1oc(-c2cc(S(=O)(=O)N3CCCCCC3)c(C)o2)nc1C#N	-20.9
Cc1ncnc2c1CCN(Cc1ccccn1)CC2	-4.71
Cc1cc(C)c(CNC(=O)NCCNc2cnccn2)c(=O)[nH]1	-4.64
O=C([C@H]1C[C@H]2OCC[C@H]2N(C(=O)c2cnccn2)C1)N1CCCCO1	-8.15
C[C@H]1C[C@H]2CN(C(=O)c3ccncn3)CC[C@@H]2O1	-19.6
O=C(O)C1(Oc2ccc(Cl)cc2)CCN(C2CCOCC2)CC1	-17.1
Cc1csc(NC(=O)c2cccnc2N2CCOCC2)n1	18.7
Cc1cc(NC(=O)CN(C)C2CCCN(c3cccnn3)C2)on1 (stereo unspecified)	23.1
O=C(NCCCN1CCCCCC1=O)c1n[nH]c(=O)c2ccccc12	-2.46
COC(=O)C(NC(=O)COC1CCCCC1)c1ccccc1 (stereo unspecified)	5.11
CN1CCN(C(=O)c2cc3c(s2)CCN3C(=O)C2CC2)CC1	-1.1

Compound	cytotoxicity at 70.5 h [%]
O=C1CCC(=O)N1CCn1nnc(-c2ccc(Br)cc2)n1	-2.01
NC(=O)COc1ccc(CNCc2cc(F)ccc2F)cc1	32.7
C[C@@H]1CN(CCOCc2ccccc2)CC[C@@]1(O)C1CCC1	37.7
Cc1ccc2oc(CN3CCC(C(=O)O)(n4ccnc4)CC3)c(C)c2c1	-16.8
CN(c1ccc(CNC(=O)c2c[nH]c(=O)c(Cl)c2)cc1)C1CCCCC1	5.49
Cc1nc2n(n1)CC(NCC(=O)N(C)Cc1cccs1)CC2 (stereo unspecified)	2.31
COc1ccc(NC(=O)Cn2nc(C)ccc2=O)cc1OC	0.232
CC(C)CN1C(=O)CO[C@@H]2CN(C(=O)CC(F)(F)F)C[C@H]21	-1.53
O=C(NCc1ccccn1)c1nnn(-c2ccc(Br)cc2)n1	10.5
Clc1cnccc1N1CCC(OC2CCOCC2)CC1	-1.59
CC(CNC(=O)N1CCN(CC(F)F)CC1)Cc1cccs1 (stereo unspecified)	1.43
CCN1CCOC(CNc2nccc(OC)n2)C1 (stereo unspecified)	-5.64
COc1cccc2c1OCC(Cc1cc(C(N)=O)ccn1)C2 (stereo unspecified)	26
CCc1cc(=O)[nH]c(-c2ccc(NCCC(C)O)nc2)n1 (stereo unspecified)	-5.98
O=C1CCC2(CCCN(C(=O)c3ccc[nH]3)C2)CN1CCc1c[nH]cn1 (stereo unspecified)	16.9
CC(C)NC(=O)c1ccc2c(c1)nc1n2CCN(Cc2ccco2)C1	-10.4
OC[C@H]1CC[C@]2(CC1)CN(Cc1ccsc1)Cc1ccccc1O2	7.87
CC(C)(C)c1noc(CCCC(=O)N2CCNC(=O)C2)n1	-16.6
Cc1cc(CN(C)C2CCCN(Cc3noc(C)n3)C2)on1 (stereo unspecified)	17.4
CC1CN(C)CCN1C(=O)c1ccn(-c2cccc(F)c2)n1 (stereo unspecified)	-15.8
O=C(O)c1cccc(CN2CCCC(Cc3ccn[nH]3)C2)c1 (stereo unspecified)	-10.2
CC(C)c1nc(CN(CC(N)=O)C(C)C)cs1	-2.05
CCC(CC)(CNC(=O)NC1CCCC1(C)C)S(C)(=O)=O (stereo unspecified)	-7.23

Compound	cytotoxicity at 70.5 h [%]
CNc1ncc(C(=O)N2CC[C@@](O)(C3CCOCC3)[C@H](C)C2)cn1	5.71
CN(CCCc1cnn(C)c1)C(=O)C1COc2ccccc2C1 (stereo unspecified)	-5.74
CC(C)n1nc2c(cc1=O)CN(Cc1nc3ccccc3o1)CC2	10.1
Cn1c(NCCC(=O)N2CCCC2)c(C#N)c(=O)n(C)c1=O	3.58
CC(C)c1nc(CN(C)C(=O)c2ccccc2C2CCNC2)cs1 (stereo unspecified)	-8.26
CN(C)Cc1cnc2n1CCN(C(=O)NC1CCCC1)CC2	-1.58
COc1cccc2c1OCC(C(=O)NCCn1nc(C)c(Cl)c1C)C2 (stereo unspecified)	-5.88
Cc1cnn(CC2CCCN2C(=O)c2cccc(S(C)(=O)=O)c2)c1 (stereo unspecified)	-2.98
CNc1cncc(C2CCCN2Cc2ccnc(N3CCCC3)n2)n1 (stereo unspecified)	16.1
CCN(Cc1ccc2c(c1)OCO2)S(=O)(=O)N(C)C(C)C	-1.76
CCc1n[nH]c(C2CN(C(=O)c3cnc(C)nc3CC)CCO2)n1 (stereo unspecified)	-8.34
OC(CN1CCCc2ccc(F)cc21)Cn1cccn1 (stereo unspecified)	7.05
CNC(=O)c1ccc(C(=O)N2CCCC2c2c(C)nn(C)c2C)cn1 (stereo unspecified)	-4.27
O=C1CCCN1CC1CN(CC2CCOCC2)Cc2nccn2C1 (stereo unspecified)	-2.55
CCCc1nc(N(C)CCN2CCCCCC2)c2cnn(C)c2n1	-11
COc1ccc2cc(C(=O)N3CCCC(n4ccnc4C)C3)[nH]c2c1 (stereo unspecified)	0.0549
CC(=O)N1CCN(Cc2cccc3c2sc2ccccc23)CC(O)C1 (stereo unspecified)	-5.85
C=C(C)CN1CCC(NC(=O)Nc2ccc(F)c(C(=O)NC)c2)CC1	21.9
CC(C)NC(=O)C1CCN(C(C)C(=O)N2CCc3sccc3C2)CC1 (stereo unspecified)	-2.44
